# According to PubChem BioAssay AID2060510 (Molecular Pharmacology Branch, DTP, NCI, 2025):
# System: 439559-082-T-J2-PDC spheroids viability
# Assay: Anticancer human tumor 439559-082-T-J2-PDC patient-derived colon adenocarcinoma cell line growth inhibition [GQUAD]
# Settings: for IC50: curve of first compound; for viability, T/C: stronger effect = lower value
# Procedure, shortened: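 Tumor cells were grown as complex spheroids with HUVEC endothelial cells and mesenchymal stem cells as stroma. G-quadruplex stabilizers were combined with targeted agents over half-log dilutions from near the clinical Cmax, or from 10 microM.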
# [1] = second compound 0.0316 µM, first compound 0.0316 µM
# [2] = second compound 0.0316 µM, first compound 0.1 µM
# [3] = second compound 0.0316 µM, first compound 0.316 µM
# [4] = second compound 0.0316 µM, first compound 1 µM
# [5] = second compound 0.0316 µM, first compound 3.16 µM
# [6] = second compound 0.0316 µM, first compound 10 µM
# [7] = second compound 0.1 µM, first compound 0.0316 µM
# [8] = second compound 0.1 µM, first compound 0.1 µM
# [9] = second compound 0.1 µM, first compound 0.316 µM
# [10] = second compound 0.1 µM, first compound 1 µM
# [11] = second compound 0.1 µM, first compound 3.16 µM
# [12] = second compound 0.1 µM, first compound 10 µM
# [13] = second compound 0.316 µM, first compound 0.0316 µM
# [14] = second compound 0.316 µM, first compound 0.1 µM
# [15] = second compound 0.316 µM, first compound 0.316 µM
# [16] = second compound 0.316 µM, first compound 1 µM
# [17] = second compound 0.316 µM, first compound 3.16 µM
# [18] = second compound 0.316 µM, first compound 10 µM
# [19] = second compound 1 µM, first compound 0.0316 µM
# [20] = second compound 1 µM, first compound 0.1 µM
# [21] = second compound 1 µM, first compound 0.316 µM
# [22] = second compound 1 µM, first compound 1 µM
# [23] = second compound 1 µM, first compound 3.16 µM
# [24] = second compound 1 µM, first compound 10 µM
# [25] = second compound 3.16 µM, first compound 0.0316 µM
# [26] = second compound 3.16 µM, first compound 0.1 µM
# [27] = second compound 3.16 µM, first compound 0.316 µM
# [28] = second compound 3.16 µM, first compound 1 µM
# [29] = second compound 3.16 µM, first compound 3.16 µM
# [30] = second compound 3.16 µM, first compound 10 µM
# [31] = second compound 10 µM, first compound 0.0316 µM
# [32] = second compound 10 µM, first compound 0.1 µM
# [33] = second compound 10 µM, first compound 0.316 µM
# [34] = second compound 10 µM, first compound 1 µM
# [35] = second compound 10 µM, first compound 3.16 µM
# [36] = second compound 10 µM, first compound 10 µM
# 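Note: spheroids exposed to the agents for 7 days before readout.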
# 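Throughout, for viability, T/C: percent of luminescence signal in DMSO vehicle wells taken as 100% viability.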
compound,measurement,setting,value
C=CCn1c(=O)c2cnc(Nc3ccc(N4CCN(C)CC4)cc3)nc2n1-c1cccc(C(C)(C)O)n1 + Cc1cnc(CNC(=O)c2c(=O)c3ccc(N4CCCN(C)CC4)nc3n3c2sc2ccccc23)cn1,IC50,second compound 0.0316 µM,2.61 µM
same,IC50,second compound 0.1 µM,2.53 µM
same,IC50,second compound 0.316 µM,1.74 µM
same,IC50,second compound 1 µM,1.4 µM
same,IC50,second compound 3.16 µM,1.28 µM
same,IC50,second compound 10 µM,1.08 µM
same,"viability, T/C",[1],95.4%
same,"viability, T/C",[2],93.7%
same,"viability, T/C",[3],88.8%
same,"viability, T/C",[4],83.7%
same,"viability, T/C",[5],43.2%
same,"viability, T/C",[6],25.4%
same,"viability, T/C",[7],104%
same,"viability, T/C",[8],83.6%
same,"viability, T/C",[9],91.4%
same,"viability, T/C",[10],76%
same,"viability, T/C",[11],43.1%
same,"viability, T/C",[12],22.2%
same,"viability, T/C",[13],84.6%
same,"viability, T/C",[14],87.5%
same,"viability, T/C",[15],73.5%
same,"viability, T/C",[16],66.3%
same,"viability, T/C",[17],33.8%
same,"viability, T/C",[18],24%
same,"viability, T/C",[19],83.2%
same,"viability, T/C",[20],87.9%
same,"viability, T/C",[21],72.1%
same,"viability, T/C",[22],61.8%
same,"viability, T/C",[23],27.3%
same,"viability, T/C",[24],20.2%
same,"viability, T/C",[25],73.3%
same,"viability, T/C",[26],63.6%
same,"viability, T/C",[27],68.3%
same,"viability, T/C",[28],56.8%
same,"viability, T/C",[29],25.1%
same,"viability, T/C",[30],18.5%
same,"viability, T/C",[31],66.2%
same,"viability, T/C",[32],53.9%
same,"viability, T/C",[33],61.2%
same,"viability, T/C",[34],51.1%
same,"viability, T/C",[35],31.2%
same,"viability, T/C",[36],13.8%
CC(C)(O)C1CCC(Nc2ccc3ncc(-c4cccc(C(F)(F)F)c4)n3n2)CC1 (stereo unspecified) + Cc1cnc(CNC(=O)c2c(=O)c3ccc(N4CCCN(C)CC4)nc3n3c2sc2ccccc23)cn1,IC50,second compound 0.0316 µM,1.68 µM
same,IC50,second compound 0.1 µM,1.76 µM
same,IC50,second compound 0.316 µM,1.46 µM
same,IC50,second compound 1 µM,1.18 µM
same,IC50,second compound 3.16 µM,1.02 µM
same,IC50,second compound 10 µM,0.418 µM
same,"viability, T/C",[1],95.8%
same,"viability, T/C",[2],96.9%
same,"viability, T/C",[3],102%
same,"viability, T/C",[4],77.2%
same,"viability, T/C",[5],14.2%
same,"viability, T/C",[6],19.1%
same,"viability, T/C",[7],94.4%
same,"viability, T/C",[8],91.4%
same,"viability, T/C",[9],98.1%
same,"viability, T/C",[10],78.8%
same,"viability, T/C",[11],19.9%
same,"viability, T/C",[12],9.57%
same,"viability, T/C",[13],84.9%
same,"viability, T/C",[14],86.8%
same,"viability, T/C",[15],71.3%
same,"viability, T/C",[16],67%
same,"viability, T/C",[17],15.5%
same,"viability, T/C",[18],14.1%
same,"viability, T/C",[19],84.5%
same,"viability, T/C",[20],72.5%
same,"viability, T/C",[21],74.5%
same,"viability, T/C",[22],56.2%
same,"viability, T/C",[23],11.7%
same,"viability, T/C",[24],12.7%
same,"viability, T/C",[25],72.4%
same,"viability, T/C",[26],72.3%
same,"viability, T/C",[27],61%
same,"viability, T/C",[28],51.2%
same,"viability, T/C",[29],0.28%
same,"viability, T/C",[30],0.21%
same,"viability, T/C",[31],63.3%
same,"viability, T/C",[32],56.9%
same,"viability, T/C",[33],57.8%
same,"viability, T/C",[34],25.3%
same,"viability, T/C",[35],0.24%
same,"viability, T/C",[36],0.26%
COc1ncnc(C2CC2)c1-c1ncc2cnn(Cc3ccc(-c4nc(C(F)(F)F)cn4C(C)C)cc3)c2n1 + Cc1cnc(CNC(=O)c2c(=O)c3ccc(N4CCCN(C)CC4)nc3n3c2sc2ccccc23)cn1,IC50,second compound 0.0316 µM,> 10 µM
same,IC50,second compound 0.1 µM,> 10 µM
same,IC50,second compound 0.316 µM,> 10 µM
same,IC50,second compound 1 µM,> 10 µM
same,IC50,second compound 3.16 µM,> 10 µM
same,IC50,second compound 10 µM,> 10 µM
same,"viability, T/C",[1],106%
same,"viability, T/C",[2],92%
same,"viability, T/C",[3],93.4%
same,"viability, T/C",[4],105%
same,"viability, T/C",[5],95.5%
same,"viability, T/C",[6],97.5%
same,"viability, T/C",[7],103%
same,"viability, T/C",[8],101%
same,"viability, T/C",[9],87.4%
same,"viability, T/C",[10],95.4%
same,"viability, T/C",[11],97.6%
same,"viability, T/C",[12],96.5%
same,"viability, T/C",[13],86.5%
same,"viability, T/C",[14],85.1%
same,"viability, T/C",[15],89.5%
same,"viability, T/C",[16],79.3%
same,"viability, T/C",[17],93.5%
same,"viability, T/C",[18],77.4%
same,"viability, T/C",[19],74.4%
same,"viability, T/C",[20],78%
same,"viability, T/C",[21],64.9%
same,"viability, T/C",[22],81.8%
same,"viability, T/C",[23],83.7%
same,"viability, T/C",[24],73%
same,"viability, T/C",[25],66.4%
same,"viability, T/C",[26],69.3%
same,"viability, T/C",[27],69.2%
same,"viability, T/C",[28],69.6%
same,"viability, T/C",[29],70%
same,"viability, T/C",[30],69%
same,"viability, T/C",[31],66.8%
same,"viability, T/C",[32],58%
same,"viability, T/C",[33],58.9%
same,"viability, T/C",[34],66.3%
same,"viability, T/C",[35],67%
same,"viability, T/C",[36],63.9%
